# Laboratory results as given in ChEMBL document CHEMBL3997811.
# How the values were obtained:
# [1] = tested on: MDCK; experiment: Cytotoxicity against MDCK cells after 48 hrs by neutral red uptake assay; format: cell-based, Canis lupus familiaris; settings: dog
# [2] = tested on: A549; experiment: Cytotoxicity against human A549 cells after 48 hrs by neutral red uptake assay; format: cell-based; settings: a549, 48 h
smiles,measurement,setting,value
OC12CC3CC(C1)CC(NCc1cc(-c4cc(Cl)sc4Cl)on1)(C3)C2,CC50,[1],87.6 µM
CSc1ccccc1-c1cc(CNC23CC4CC(CC(O)(C4)C2)C3)no1,CC50,[2],102 µM
same,CC50,[1],59.3 µM
Clc1cc(-c2cc(CNC34CC5CC(CC(C5)C3)C4)no2)cs1,CC50,[2],52.6 µM
same,CC50,[1],35.6 µM
Oc1ccccc1-c1cc(CNC23CC4CC(CC(C4)C2)C3)no1,CC50,[2],78.2 µM
same,CC50,[1],73.7 µM
COc1sccc1-c1cc(CNC23CC4CC(CC(C4)C2)C3)no1,CC50,[2],35.5 µM
same,CC50,[1],30.6 µM
OC12CC3CC(C1)CC(NCc1cc(-c4ccccc4Cl)on1)(C3)C2,CC50,[2],143 µM
same,CC50,[1],64.1 µM
Clc1cc(-c2cc(CNC34CC5CC(CC(C5)C3)C4)no2)c(Cl)s1,CC50,[2],61.4 µM
same,CC50,[1],39.3 µM
